From ChEMBL document CHEMBL1201862, “PubChem BioAssay data set” (2004)
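Interpolation was linear, between the two tested concentrations surrounding the appropriate level; five concentrations were tested over 48 hours in 96-well plates. The concentration for 50% growth inhibition is given as GI50.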 Calls of active or inactive are those of the source. Rule as the data show it: active = GI50 up to about 1.1 µM and inactive = higher.

What was measured:
Experiment in all cases: NCI anticancer screen, dose series, 48 h
[1] = test system: 786-0
[2] = test system: HL-60
[3] = test system: HCT-15
[4] = test system: RXF 393
[5] = test system: A498
[6] = test system: ACHN
[7] = test system: HOP-62
[8] = test system: NCI-H226
[9] = test system: UACC-257
[10] = test system: UO-31
[11] = test system: SN12C
[12] = test system: TK-10
[13] = test system: CCRF-CEM
[14] = test system: MOLT-4
[15] = test system: OVCAR-4
[16] = test system: SF-295
[17] = test system: HCT-116
[18] = test system: SK-MEL-28
[19] = test system: SF-268

| Compound | GI50 [1] | GI50 [2] | GI50 [3] [µM] | GI50 [4] | GI50 [5] | GI50 [6] | GI50 [7] | GI50 [8] | GI50 [9] | GI50 [10] | GI50 [11] | GI50 [12] | GI50 [13] | GI50 [14] | GI50 [15] | GI50 [16] | GI50 [17] | GI50 [18] | GI50 [19] |
| --- | --- | --- | --- | --- | --- | --- | --- | --- | --- | --- | --- | --- | --- | --- | --- | --- | --- | --- | --- |
| O=C(CCl)Nc1ccc(-c2nc3ccccc3s2)cc1 | 2 µM (inactive) | 1.91 µM (inactive) | 2.18 | 3.43 µM (inactive) | 6.82 µM (inactive) | 5.28 µM (inactive) | 3.72 µM (inactive) | 1.43 µM (inactive) | 5.66 µM (inactive) | 13 µM (inactive) | 1.87 µM (inactive) | 15.7 µM (inactive) | 0.94 µM (active) | 1.74 µM (inactive) | 3.37 µM (inactive) | 6.92 µM (inactive) | 2.16 µM (inactive) | 4.12 µM (inactive) | 2.81 µM (inactive) |
| Nc1ccc(C(=O)O)cc1.Nc1nc(N)c2nc[nH]c2n1 | 26.7 µM (inactive) | 31.4 µM (inactive) | 28.8 | 12.1 µM (inactive) | 13.6 µM (inactive) | 17 µM (inactive) | 20.7 µM (inactive) | > 100 µM (inactive) | 17.5 µM (inactive) | 11.3 µM (inactive) | 39 µM (inactive) | 19.8 µM (inactive) | 19.6 µM (inactive) | 41.4 µM (inactive) | 26.4 µM (inactive) | 25 µM (inactive) | 15.2 µM (inactive) | 33 µM (inactive) | 60.8 µM (inactive) |
| COc1cc2c(/C=C3/C(=O)Nc4cccc(Cl)c43)c(Cl)[nH]c2cc1C | 1.85 µM (inactive) | 1.82 µM (inactive) | 1.95 | 2 µM (inactive) | 8.67 µM (inactive) | 2.67 µM (inactive) | 2.15 µM (inactive) | 1.44 µM (inactive) | 2.26 µM (inactive) | 3.73 µM (inactive) | 1.32 µM (inactive) | 1.06 µM (active) | 1.56 µM (inactive) | 0.366 µM (active) | 0.078 µM (active) | 1.69 µM (inactive) | 1.49 µM (inactive) | 1.21 µM (inactive) | 3.8 µM (inactive) |
| CC(C)(C)[Si](C)(C)OCC1C=CC(n2cnc3c(N)ncnc32)O1 (stereo not given) | 61.2 µM (inactive) | 9.02 µM (inactive) | 53.1 | 24.1 µM (inactive) | > 79.3 µM (inactive) | > 100 µM (inactive) | 69.8 µM (inactive) | 19.2 µM (inactive) | 36 µM (inactive) | 52 µM (inactive) | 35.9 µM (inactive) | > 100 µM (inactive) | 8.32 µM (inactive) | 10.1 µM (inactive) | 32.9 µM (inactive) | 55.2 µM (inactive) | 20.1 µM (inactive) | > 62.1 µM (inactive) | 83.2 µM (inactive) |
| Nc1nc(Cl)cc(NCC2(CO)CCCC2)n1 | > 100 µM (inactive) | > 100 µM (inactive) | > 100 | > 100 µM (inactive) | > 100 µM (inactive) | > 100 µM (inactive) | > 100 µM (inactive) | > 100 µM (inactive) | 65.8 µM (inactive) | > 100 µM (inactive) | > 100 µM (inactive) | > 100 µM (inactive) | > 100 µM (inactive) | > 100 µM (inactive) | 19 µM (inactive) | > 100 µM (inactive) | > 100 µM (inactive) | > 100 µM (inactive) | > 100 µM (inactive) |
| CCOC(OCC)C(CC)[Se]c1ccccc1[N+](=O)[O-] (stereo not given) | 3.41 µM (inactive) | 0.418 µM (active) | 1.57 | 1.8 µM (inactive) | 2.17 µM (inactive) | 11.3 µM (inactive) | 3.08 µM (inactive) | 7.96 µM (inactive) | 8.83 µM (inactive) | 7.43 µM (inactive) | 7.94 µM (inactive) | 8.09 µM (inactive) | 2 µM (inactive) | 2.9 µM (inactive) | > 55.5 µM (inactive) | 2.32 µM (inactive) | 3.6 µM (inactive) | 10.5 µM (inactive) | 8.04 µM (inactive) |
| N#Cc1nc(-c2cccs2)oc1N | > 100 µM (inactive) | 56.8 µM (inactive) | > 100 | > 100 µM (inactive) | > 100 µM (inactive) | > 100 µM (inactive) | > 100 µM (inactive) | > 100 µM (inactive) | > 100 µM (inactive) | 62.4 µM (inactive) | > 100 µM (inactive) | > 100 µM (inactive) | 70.6 µM (inactive) | > 100 µM (inactive) | > 100 µM (inactive) | > 100 µM (inactive) | > 100 µM (inactive) | > 100 µM (inactive) | > 100 µM (inactive) |
| CCOC(=O)CCNC(=O)c1cc(C)cc2c1Oc1c(cc(C)cc1C(=O)NCCC(=O)OCC)S2 | 50 µM (inactive) | > 100 µM (inactive) | > 100 | 20.9 µM (inactive) | 27.2 µM (inactive) | > 100 µM (inactive) | 56.4 µM (inactive) | 81.7 µM (inactive) | 79.6 µM (inactive) | > 100 µM (inactive) | > 100 µM (inactive) | 42.3 µM (inactive) | > 100 µM (inactive) | > 100 µM (inactive) | > 100 µM (inactive) | 53.5 µM (inactive) | 24.9 µM (inactive) | > 100 µM (inactive) | 49.2 µM (inactive) |
| O=c1c2cc(I)ccc2nc(SCc2nncs2)n1Cc1ccccc1 | 15 µM (inactive) | 22.1 µM (inactive) | 50.2 | 13.6 µM (inactive) | 19.7 µM (inactive) | 9.33 µM (inactive) | 20.3 µM (inactive) | 23.8 µM (inactive) | 10.5 µM (inactive) | 1.17 µM (inactive) | 23.9 µM (inactive) | 29.5 µM (inactive) | 5.71 µM (inactive) | 8.3 µM (inactive) | 12.6 µM (inactive) | 13.2 µM (inactive) | 11.6 µM (inactive) | 90.2 µM (inactive) | 14.1 µM (inactive) |
| Clc1nc2n(c1/C=C/c1cccs1)CCS2 | 20 µM (inactive) | 6 µM (inactive) | 37 | 40.8 µM (inactive) | 20 µM (inactive) | 37.5 µM (inactive) | 53.7 µM (inactive) | 31.6 µM (inactive) | 57.5 µM (inactive) | 31 µM (inactive) | 31.4 µM (inactive) | 36 µM (inactive) | 10.9 µM (inactive) | 11.3 µM (inactive) | 64 µM (inactive) | 29.6 µM (inactive) | 25.4 µM (inactive) | 34.8 µM (inactive) | 40.4 µM (inactive) |
| CC(=O)O[C@H]1CC[C@@]2(C)C(=CC[C@@H]3[C@@H]2CC[C@]2(C)c4c(cc(C#N)c(=N)n4C(C)=O)C[C@@H]32)C1 | 20.5 µM (inactive) | 14.6 µM (inactive) | 15.2 | 22.6 µM (inactive) | 30.5 µM (inactive) | 20.1 µM (inactive) | 24.2 µM (inactive) | 27.4 µM (inactive) | 19.1 µM (inactive) | 22 µM (inactive) | 17.4 µM (inactive) | 25.4 µM (inactive) | 3.6 µM (inactive) | 12.2 µM (inactive) | 18.7 µM (inactive) | 11.4 µM (inactive) | 14.8 µM (inactive) | 18.7 µM (inactive) | 27.9 µM (inactive) |
| C=C1C[C@@H](O)[C@@H](Br)C(C)(C)[C@]12CCC(C)(Br)C(Cl)C2 (stereo not given in full) | > 50 µM (inactive) | 1.03 µM (active) | > 50 | > 50 µM (inactive) | > 50 µM (inactive) | > 50 µM (inactive) | > 50 µM (inactive) | 41.3 µM (inactive) | > 50 µM (inactive) | > 50 µM (inactive) | > 50 µM (inactive) | > 50 µM (inactive) | > 50 µM (inactive) | > 50 µM (inactive) | > 50 µM (inactive) | > 50 µM (inactive) | > 50 µM (inactive) | > 50 µM (inactive) | > 50 µM (inactive) |
| COc1cc(C2S/C(=C/c3ccccc3)C(=O)N2c2ccccn2)cc(OC)c1OC (stereo not given) | 14.3 µM (inactive) | 12.4 µM (inactive) | 12.8 | 10 µM (inactive) | 13.2 µM (inactive) | 10.5 µM (inactive) | 18.6 µM (inactive) | 45.9 µM (inactive) | 33.1 µM (inactive) | 13.5 µM (inactive) | 15.3 µM (inactive) | 45.7 µM (inactive) | 3.57 µM (inactive) | 9.55 µM (inactive) | 19.2 µM (inactive) | 24.5 µM (inactive) | 7.16 µM (inactive) | 23 µM (inactive) | 15.2 µM (inactive) |
| CSc1cc(-c2ccccn2)nc(-c2ccccn2)c1 | 0.0546 µM (active) | 0.0492 µM (active) | 0.0324 | 0.255 µM (active) | 0.769 µM (active) | 0.0334 µM (active) | 0.0329 µM (active) | 0.0395 µM (active) | 0.481 µM (active) | 0.0607 µM (active) | 0.0991 µM (active) | 0.0401 µM (active) | 0.0527 µM (active) | 0.0421 µM (active) | 0.0828 µM (active) | 0.0566 µM (active) | 0.0682 µM (active) | 0.0736 µM (active) | 0.0559 µM (active) |
| O=C(O)CCSc1ncnc2[nH]cnc12 | > 100 µM (inactive) | > 100 µM (inactive) | > 100 | > 100 µM (inactive) | > 100 µM (inactive) | > 100 µM (inactive) | > 100 µM (inactive) | 64.7 µM (inactive) | > 100 µM (inactive) | > 100 µM (inactive) | > 100 µM (inactive) | > 100 µM (inactive) | > 100 µM (inactive) | > 100 µM (inactive) | > 100 µM (inactive) | > 100 µM (inactive) | > 100 µM (inactive) | > 100 µM (inactive) | > 100 µM (inactive) |
